Among the test systems are LXFL 529 NSCLC; P388 leukemia; M19-MEL melanoma; SN12K1 renal; BT-549 breast; MDA-MB-435; MDA-N; T-47D breast; PC-3 prostate; HS 578T breast.
Test in all cases: NCI tumour cell line growth inhibition, 48 h

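Step 1: Grow cells in 96-well plates. Step 2: Expose to compound for 48 hours at 5 concentrations. Step 3: Interpolate endpoints linearly; if unreached, use highest concentration. Definition used: TGI = concentration required for complete inhibition of growth.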 Bounds are passed on as bounds.

For `CCOc1ccc(C(C)c2cc3c(cc2OC)OCO3)cc1` (stereo not given), in the test with LXFL 529 NSCLC, the TGI was > 100 µM.

As for `COC1=CC(=O)C=C(OC)C1=O`, the TGI with P388 leukemia is 1.25 µM; in the test on M19-MEL melanoma, 8.19 µM; in the test with SN12K1 renal it was 18 µM.

`CN1Cc2cc(O)c(O)cc2C(O)C1` (stereo not given): the TGI in the test on BT-549 breast, in the test with MDA-MB-435, with MDA-N, in the test on T-47D breast, in the test with PC-3 prostate and in the test on HS 578T breast was > 100 µM in each case.

(Values after PubChem BioAssay (NCI).)
